Consider 15 molecules from US4684739A, “Alkylenedioxybenzene derivatives and acid addition salts thereof” (Mitsubishi Chemical Industries Limited, priority 1980, dated 1987).

Structures can show the parent of a compound that is named as a salt.

In data set [1] the test system is spontaneous hypertensive rats (SHR). The data set can be described thus: Hypotensive effect in spontaneous hypertensive rats after oral administration. The class given is in vivo. To be noted: Rattus norvegicus, percent drop relative to blood pressure before medication; for inhibition in vivo at 1 mg/kg: 1 mg/kg p.o.; for inhibition in vivo at 3 mg/kg: 3 mg/kg p.o.; for inhibition in vivo at 10 mg/kg: 10 mg/kg p.o. The method, then:
The hypotensive activities of the compounds of this invention were tested as follows: The test animals used were spontaneous hypertensive rats (SHR) of 5 to 7 month old weighing 300 to 370 g. The blood pressure and the heart rate were measured bloodily under no anesthesia by means of a cathether which has been inserted through the tail's artery under ether anesthesia, thereby determining the average blood pressure and heart rate before medication. […] The hypotensive effect was expressed as percent drop relative to the blood pressure before medication.

Data set [2] in a line: Acute toxicity (LD50) in mice, Litchfield-Wilcoxon method. Conditions: mouse, in vivo. As to the method: The values for acute toxicity (LD50 ) were calculated by the Litchfield-Wilcoxon method from the data obtained on mice.

In general, inhibition in vivo refers to the percentage by which the read-out fell short of the control. High values mean strong suppression, low ones little suppression. For orientation: LD50 means the dose expected to kill half of the subjects tested. A low value points to greater toxicity. Regarding `Cl.OC(CNCC1COc2ccccc2O1)COc1ccc2c(c1)OCO2` (stereo not drawn) [Compound 1, 5-[3-{(1,4-benzodioxan-2-ylmethyl)amino}-2-hydroxypropoxy]-1,3-benzodioxole hydrochloride], in data set [1], 1 mg/kg produced 9.9% inhibition in vivo, the inhibition in vivo at 3 mg/kg was 15.4% and the inhibition in vivo at 10 mg/kg was determined as 27.6%. The same molecule displayed an LD50 in data set [2] (po) of 515 mg/kg.
In data set [1], `OC(CNCC1COc2ccccc2O1)COc1ccc2c(c1)OCCO2` (stereo not drawn) [Compound 2, 6-[3-{(1,4-benzodioxan-2-ylmethyl)amino}-2-hydroxypropoxy]-1,4-benzodioxane] had an inhibition in vivo at 1 mg/kg of 9%, an inhibition in vivo at 3 mg/kg of 20.2% and an inhibition in vivo at 10 mg/kg of 30.4%.
In data set [1], `Cl.c1ccc2c(c1)OCC(CNCCCOc1ccc3c(c1)OCO3)O2` (stereo not drawn) [Compound 5, 5-[3-{(1,4-benzodioxan-2-ylmethyl)amino}propoxy]-1,3-benzodioxole hydrochloride] had an inhibition in vivo at 3 mg/kg of 32.6% and an inhibition in vivo at 10 mg/kg of 47.6%. The molecule also registered an LD50 in data set [2] (ip) of 165 mg/kg.
In the case of `c1ccc2c(c1)OCC(CNCCCCOc1ccc3c(c1)OCO3)O2` (stereo not drawn) [Compound 6], in data set [1], testing at 3 mg/kg gave an inhibition in vivo of 28.5% and the inhibition in vivo at 10 mg/kg came to 32%.
For `c1ccc2c(c1)OCC(CNCCCOc1ccc3c(c1)OCCO3)O2` (stereo not drawn) [Compound 7, 6-[3-{(1,4-benzodioxan-2-ylmethyl)amino}propoxy]-1,4-benzodioxane] the same measures were 35.2% and 55.3%.
Taken in the same sequence, the figures for `c1ccc2c(c1)OCC(CNCCCOc1ccc3c(c1)OCCCO3)O2` (stereo not drawn) [Compound 9, 1-[3-{(1,4-benzodioxan-2-ylmethyl)amino}propoxy]-3,4-trimethylenedioxybenzene] were 30.1% and 48.4%.
In data set [1], `c1ccc2c(c1)OCC(CNCCCCOc1cccc3c1OCO3)O2` (stereo not drawn) [Compound 10] displayed an inhibition in vivo at 3 mg/kg of 30.6% and an inhibition in vivo at 10 mg/kg of 40%.
In data set [1], `Cl.O=C(CNCC1COc2ccccc2O1)c1ccc2c(c1)OCO2` (stereo not drawn) [Compound 12, 5-[2-{(1,4-benzodioxan-2-ylmethyl)amino}acetyl]-1,3-benzodioxole hydrochloride] gave an inhibition in vivo at 1 mg/kg of 20.1%, an inhibition in vivo at 3 mg/kg of 28.2% and an inhibition in vivo at 10 mg/kg of 42.3%. In data set [2] (po), the LD50 was found to be 1350 mg/kg.
In data set [1], `c1ccc2c(c1)OCC(CNCCCCc1ccc3c(c1)OCCO3)O2` (stereo not drawn) [Compound 16, 6-[4-{(1,4-benzodioxan-2-ylmethyl)amino}butyl]-1,4-benzodioxane] returned an inhibition in vivo at 1 mg/kg of 12.1%, an inhibition in vivo at 3 mg/kg of 33.7% and an inhibition in vivo at 10 mg/kg of 50%. For the same molecule, the LD50 in data set [2] (iv) is 31 mg/kg.
In data set [1], `c1ccc2c(c1)OCC(CNCCCCc1ccc3c(c1)OCCCO3)O2` (stereo not drawn) [Compound 17, 1-[4-{(1,4-benzodioxan-2-ylmethyl)amino}butyl]-3,4-trimethylenedioxybenzene hydrochloride] gave an inhibition in vivo at 1 mg/kg of 20.1% and an inhibition in vivo at 3 mg/kg of 29.7%.
As to `O=C(CCNCC1COc2ccccc2O1)Nc1ccc2c(c1)OCO2` (stereo not drawn) [Compound 18, N-[3-{(1,4-benzodioxan-2-ylmethyl)amino}propionyl]-3,4-methylenedioxyaniline], in data set [1], the inhibition in vivo at 1 mg/kg is 11.9%, the inhibition in vivo at 3 mg/kg was 27.5% and the inhibition in vivo at 10 mg/kg worked out at 41%.
Taken in the same sequence, the figures for `c1ccc2c(c1)OCC(CNCCCNc1ccc3c(c1)OCO3)O2` (stereo not drawn) [Compound 19, N-[3-{(1,4-benzodioxan-2-ylmethyl)amino}propyl]-3,4-methylenedioxyaniline] were 19.6%, 27.8% and 44.3%.
Taken in the same sequence, the figures for `OC(CNCC1COc2ccccc2O1)c1ccc2c(c1)OCCO2` (stereo not drawn) [Compound 21, 6-[2-{(1,4-benzodioxan-2-ylmethyl)amino}-1-hydroxyethyl]-1,4-benzodioxane] were 9.8%, 19.5% and 39.1%.
In data set [1], `c1ccc2c(c1)OCC(CNCCOc1cccc3c1OCO3)O2` (stereo not drawn) [Compound 26, reference compound] had an inhibition in vivo at 3 mg/kg of 3.5% and an inhibition in vivo at 10 mg/kg of 8.1%.
On to `O=C(CCNCC1COc2ccccc2O1)c1ccc2c(c1)OCO2` (stereo not drawn) [Compound 27, reference compound], for which, in data set [1], the inhibition in vivo at 1 mg/kg was found to be 7.8%, 3 mg/kg produced 12.8% inhibition in vivo and the inhibition in vivo at 10 mg/kg stood at 30.3%.
